This is an account of results in patent US20100280268A1, “H[…] RESOLVED FL[…] TEST SYSTEM” (priority 2006, published 2010).

Ends that are not written are not given here.

The assay deals with T1, HIV six-helix bundle of gp41 (IQN36 / C34) (Human immunodeficiency virus type 1 group M subtype B, UniProt P04578).
T1 construct: made in house; host or cells: chemical peptide synthesis, no expression host
The assay can be described thus: HIV-FRET IQN36/C34 homogeneous time resolved fluorescence test system (6-helix bundle formation). In kind it is binding, Human Immunodeficiency Virus (HIV-1). The method, then:
All reagents were dissolved in 100 mM Hepes buffer pH 7.2. Test compounds were serially diluted and then added to 384-well plates. A final concentration of 10 nM S-APC and 100 nM IQN36-biotin were mixed in tubes, incubated for 30 min at room temperature and then added to well containing test compound. The compound/S-APC/IQN36-biotin mixture was incubated for another 2 hours at room temperature.
Consider `COC(=O)c1cc(Cc2cc(Cc3ccc(NS(=O)(=O)c4ccc(C)cc4)c(C(=O)O)c3)cc(C(=O)O)c2NS(=O)(=O)c2ccc(C)cc2)ccc1NS(=O)(=O)c1ccc(C)cc1` [Compound 1], for which it took 3.27 µM to reach half-maximal inhibition (IC50). In the case of `Cc1ccc(S(=O)(=O)Nc2ccc(Oc3ccc(NS(=O)(=O)c4ccc(C)cc4)c(C(=O)O)c3)cc2OCc2ccccc2)cc1` [Compound 2, 5-[3-Benzyloxy-4-(toluene-4-sulfonylamino)-phenoxy]-2-(toluene-4-sulfonylamino)-benzoic acid], it took 2.72 µM to reach half-maximal inhibition (IC50). For `Cc1ccc(S(=O)(=O)Nc2ccc(Oc3ccc4c(c3)CCCN4S(=O)(=O)c3ccc(C)cc3)cc2C(=O)O)cc1` [Compound 3, 2-(4-methylphenylsulfonamino)-5-[1-(toluene-4-sulfonyl)-1,2,3,4-tetrahydro-quinolin-6-yloxy]-benzoic acid], the 50% inhibitory concentration (IC50) came to 2.88 µM. Turning to `CCCCCCN(c1ccc(Oc2ccc(NS(=O)(=O)c3ccc(C)cc3)c(C(=O)O)c2)cc1)S(=O)(=O)c1ccc(C)cc1` [Compound 4, 5-{4-[Hexyl-(toluene-4-sulfonyl)-amino]-phenoxy}-2-(4-methylphenylsulfonamino)-benzoic acid], half-maximal inhibition (IC50) required 4.45 µM. `CCCCCOc1cc(Oc2ccc(NS(=O)(=O)c3ccc(C)cc3)c(C(=O)O)c2)ccc1NS(=O)(=O)c1ccc(C)cc1` [Compound 5, 5-[3-pentyloxy-4-(toluene-4-sulfonylamino)-phenoxy]-2-(toluene-4-sulfonylamino)-benzoic acid] came in with an IC50 of 3.48 µM. The compound `Cc1ccc(S(=O)(=O)Nc2ccc(Oc3ccc(NS(=O)(=O)c4ccc(C)cc4)c(-c4ccccc4)c3)cc2C(=O)O)cc1` [Compound 6, 2-(Toluene-4-sulfonylamino)-5-[6-(toluene-4-sulfonylamino)-biphenyl-3-yloxy]-benzoic acid] displayed a half-maximal inhibitory concentration (IC50) of 3.16 µM. Compound `Cc1ccc(S(=O)(=O)Nc2ccc(Oc3ccc(NS(=O)(=O)c4ccc(C)cc4)c(C(=O)O)c3)cc2OCC(C)C)cc1` [Compound 7, 5-[3-Isobutoxy-4-(toluene-4-sulfonylamino)-phenoxy]-2-(toluene-4-sulfonylamino)-benzoic acid] showed an IC50 of 3.27 µM.

As for `Cc1ccc(S(=O)(=O)Nc2ccc(Oc3ccc(NS(=O)(=O)c4ccc(C)cc4)c(C(=O)O)c3)cc2NCc2ccccc2)cc1` [Compound 8, 5-[3-Benzylamino-4-(toluene-4-sulfonylamino)-phenoxy]-2-(toluene-4-sulfonylamino)-benzoic acid], the IC50 stood at 2.27 µM. Then `CCCCNc1cc(Oc2ccc(NS(=O)(=O)c3ccc(C)cc3)c(C(=O)O)c2)ccc1NS(=O)(=O)c1ccc(C)cc1` [Compound 9, 5-[3-Butylamino-4-(toluene-4-sulfonylamino)-phenoxy]-2-(toluene-4-sulfonylamino)-benzoic acid], with 1.81 µM; and `Cc1ccc(S(=O)(=O)Nc2ccc(Oc3ccc(NS(=O)(=O)c4ccc(C)cc4)c(N(C)Cc4ccccc4)c3)cc2C(=O)O)cc1` [Compound 10, 5-[3-(Benzyl-methyl-amino)-4-(toluene-4-sulfonylamino)-phenoxy]-2-(toluene-4-sulfonylamino)-benzoic acid], with 2.64 µM; and `CCNc1cc(Oc2ccc(NS(=O)(=O)c3ccc(C)cc3)c(C(=O)O)c2)ccc1NS(=O)(=O)c1ccc(C)cc1` [Compound 11, 5-[3-Ethylamino-4-(toluene-4-sulfonylamino)-phenoxy]-2-(toluene-4-sulfonylamino)-benzoic acid], with 2.47 µM. As to `Cc1ccc(S(=O)(=O)Nc2ccc(Oc3ccc(NS(=O)(=O)c4ccc(C)cc4)c(C(=O)O)c3)cc2Cc2ccccc2)cc1` [Compound 12, 5-[3-Benzyl-4-(toluene-4-sulfonylamino)-phenoxy]-2-(toluene-4-sulfonylamino)-benzoic acid], the half-inhibitory concentration (IC50) stood at 2.09 µM. In turn, `CNc1cc(Oc2ccc(NS(=O)(=O)c3ccc(C)cc3)c(C(=O)O)c2)ccc1NS(=O)(=O)c1ccc(C)cc1` [Compound 13, 5-[3-Methylamino-4-(toluene-4-sulfonylamino)-phenoxy]-2-(toluene-4-sulfonylamino)-benzoic acid] registered a half-maximal inhibitory concentration (IC50) of 2.69 µM. Turning to “NFYDPLVFPSDEFDASISQVNEKINQSLAFIRKSDELLHNVNAGK [Compound C45, reference compound]”, the IC50 is more than 10 µM.

As usually defined, the IC50 is the point on the concentration scale where inhibition reaches its midpoint. Read a high IC50 as weaker potency in that assay.
